Laboratory results from paper PMC2772170 (Journal of medicinal chemistry, 2009).
Where two headings read alike, the source gives them in different places.

Assays:
[1] = human, microsomes, 1 h
[2] = NO release on reaction with cysteine, chemiluminescent assay; details: for NO donation on reaction with cysteine (in words): chemiluminescent assay
[3] = system: ex vivo worms in culture; assay: Ex vivo parasite killing, visual examination of cultured worms; set-up: species or system Schistosoma
[4] = Microsomal stability; details: human liver microsomes, 60 minutes at 37 °C; for Microsomal stability, NADPH (+): with NADPH; for Microsomal stability, NADPH (−): without NADPH
[5] = target: T1, thioredoxin glutathione reductase (TGR) (Schistosoma mansoni, UniProt Q962Y6); assay type: biochemical
T1 sequence (Q962Y6 1-598): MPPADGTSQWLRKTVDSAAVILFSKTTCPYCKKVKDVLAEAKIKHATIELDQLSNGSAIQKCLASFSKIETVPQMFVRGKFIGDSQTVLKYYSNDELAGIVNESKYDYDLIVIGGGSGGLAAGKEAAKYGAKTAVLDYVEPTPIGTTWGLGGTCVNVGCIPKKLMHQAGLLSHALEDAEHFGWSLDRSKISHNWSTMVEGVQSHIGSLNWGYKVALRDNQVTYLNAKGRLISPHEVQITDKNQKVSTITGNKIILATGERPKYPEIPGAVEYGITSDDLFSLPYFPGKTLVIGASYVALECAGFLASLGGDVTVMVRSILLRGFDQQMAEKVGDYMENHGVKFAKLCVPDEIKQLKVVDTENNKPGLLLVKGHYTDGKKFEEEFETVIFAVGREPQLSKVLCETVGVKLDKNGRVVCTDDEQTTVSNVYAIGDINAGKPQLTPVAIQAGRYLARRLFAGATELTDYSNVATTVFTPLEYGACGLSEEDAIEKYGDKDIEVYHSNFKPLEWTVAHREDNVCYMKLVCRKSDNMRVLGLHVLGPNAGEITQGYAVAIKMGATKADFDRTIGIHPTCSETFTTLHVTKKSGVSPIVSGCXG

[6] = target: T2, TGR (Schistosoma mansoni, UniProt Q962Y6); assay type: biochemical; details: with TGR; ABTS method, data in supporting information
T2 sequence (Q962Y6 1-598): T1 sequence (Q962Y6 1-598)

[7] = Caco-2 permeability; details: human
[8] = target: T1, thioredoxin glutathione reductase (TGR); details: cited from earlier work
[9] = target: T2, TGR; details: cited from earlier work
[10] = ABTS oxidation; cited from earlier work
[11] = 10 μM compound, cultured worms, 4 hr
[12] = 10 μM compound, cultured worms, 24 hr
[13] = 10 μM compound, cultured worms, 48 hr

SMILES | Ex Vivo Parasite Killing 2 hr ([3]; 10 μM compound, cultured worms) | Ex Vivo Parasite Killing 4 hr [3, 11] | Ex Vivo Parasite Killing 48 hr [3, 13] | Ex Vivo Parasite Killing 72 hr ([3]; 10 μM compound, cultured worms) | Ex Vivo Parasite Killing 8 hr ([3]; 10 μM compound, cultured worms) | also measured
N#Cc1c(-c2cc(F)cc(-c3no[n+]([O-])c3C#N)c2)no[n+]1[O-] [Analogue 33] |  |  |  |  |  | Microsomal stability, NADPH (+) [1]: 20/51 % remaining; Microsomal stability, NADPH (−) [1]: 20/51 % remaining; NO equivalents produced per equivalent of reagent [2]: 1.55 molar equivalents; Ex Vivo Parasite Killing 48 hr [3]: 100%D
COc1cc(-c2no[n+]([O-])c2C#N)cc(OC)c1OC [Analogue 22] | n.e. | n.e. |  |  |  | Ex Vivo Parasite Killing 16 hr ([3]; 10 μM compound, cultured worms): sluggish
N#Cc1c(-c2ccc(Br)cc2)no[n+]1[O-] [Analogue 16] | n.e. | sluggish | 100%D | 100%D |  | Microsomal stability, NADPH (+) [4]: 10 % remaining; Microsomal stability, NADPH (−) [4]: 67 % remaining; Ex Vivo Parasite Killing 24 hr [3, 12]: 100%D
N#Cc1nonc1-c1ccccc1 [Analogue 4] |  |  |  |  |  | TGR inhibition (in words) [5]: nor was either analogue active versus TGR; NO release / NO donating ability (in words) [6]: no appreciable NO release with TGR; Ex vivo worm killing (in words) [3]: nor was either analogue active versus TGR or an effective ex vivo worm killing agent
N#Cc1c(-c2cccc(C(F)(F)F)c2)no[n+]1[O-] [Analogue 12] | n.e. | n.e. | 100%D | 100%D |  | 
N#Cc1c(-c2cccc(O)c2)no[n+]1[O-] [Analogue 19] | n.e. | n.e. | n.e. | n.e. |  | Ex Vivo Parasite Killing 16 hr ([3]; 10 μM compound, cultured worms): n.e.; Ex Vivo Parasite Killing 24 hr [3, 12]: n.e.
N#Cc1c(-c2cccs2)no[n+]1[O-] [Analogue 29] | n.e. | n.e. | 100%D | 100%D |  | Papp A→B [7]: 8.4 ×10⁻⁶ cm/s; Microsomal stability, NADPH (+) [4]: 1 % remaining; Microsomal stability, NADPH (−) [4]: 64 % remaining; NO release / NO donating ability (in words) [6]: good NO release profiles
N#Cc1no[n+]([O-])c1-c1ccccc1 [Analogue 5] |  |  |  |  |  | TGR inhibition (in words) [5]: nor was either analogue active versus TGR; NO release / NO donating ability (in words) [6]: no appreciable NO release with TGR; Ex vivo worm killing (in words) [3]: nor was either analogue active versus TGR or an effective ex vivo worm killing agent
N#Cc1c(-c2cccc(-c3no[n+]([O-])c3C#N)c2)no[n+]1[O-] [Analogue 31] |  |  |  |  |  | Ex Vivo Parasite Killing 4 hr [3]: curling; Ex Vivo Parasite Killing 24 hr [3]: 100%D; Ex Vivo Parasite Killing 48 hr [3]: 100%D
[O-][n+]1onc(-c2ccccc2)c1CO [Analogue 7] |  |  |  |  |  | NO release / NO donating ability (in words) [6]: only a weak NO donor
COc1ccc(-c2no[n+]([O-])c2C#N)cc1 [Analogue 24] | n.e. | n.e. |  | 100%D | n.e. | 
COc1cccc(-c2no[n+]([O-])c2C#N)c1 [Analogue 23] | n.e. | n.e. |  |  | n.e. | Ex Vivo Parasite Killing 16 hr ([3]; 10 μM compound, cultured worms): n.e.
Cc1ccc(-c2no[n+]([O-])c2C#N)cc1 [Analogue 25] | n.e. | n.e. |  |  | n.e. | 
CC(=O)OC[C@H]1O[C@@H]([S-])[C@H](OC(C)=O)[C@@H](OC(C)=O)[C@@H]1OC(C)=O.CCP(CC)CC.[Au+] [auranofin] |  |  |  |  |  | TGR inhibition (in words) [8]: potent inhibitor of TGR
O=Cc1c(-c2ccccc2)no[n+]1[O-] [Analogue 8] |  |  |  |  |  | NO release / NO donating ability (in words) [6]: only modest NO donating abilities
N#Cc1c(-c2ccc(Cl)cc2)no[n+]1[O-] [Analogue 17] | n.e. | n.e. |  | 100%D | n.e. | Ex Vivo Parasite Killing 16 hr ([3]; 10 μM compound, cultured worms): sluggish
N#Cc1c(-c2ccc(C(F)(F)F)cc2)no[n+]1[O-] [Analogue 18] | n.e. | n.e. |  | 100%D |  | 
N#Cc1c(-c2cccc([N+](=O)[O-])c2)no[n+]1[O-] [Analogue 11] | n.e. | n.e. |  |  | n.e. | Ex Vivo Parasite Killing 16 hr ([3]; 10 μM compound, cultured worms): sluggish
N#Cc1c(-c2ccco2)no[n+]1[O-] [Analogue 28] | n.e. | n.e. | 100%D | 100%D |  | NO release / NO donating ability (in words) [6]: good NO release profiles
N#Cc1c(-c2ccc(F)c(Br)c2)no[n+]1[O-] [Analogue 13] | n.e. | n.e. |  | 100%D | curling | Ex Vivo Parasite Killing 24 hr [3, 12]: 50%D
N#Cc1c(-c2cccc(Br)c2)no[n+]1[O-] [Analogue 14] | n.e. | n.e. | 100%D | 100%D |  | Ex Vivo Parasite Killing 24 hr [3, 12]: 100%D
COc1ccccc1-c1no[n+]([O-])c1C#N [Analogue 21] | n.e. | n.e. |  |  |  | 
N#Cc1c(-c2ccc(O)cc2)no[n+]1[O-] [Analogue 27] | n.e. | n.e. |  | 100%D | sluggish | 
N#Cc1c(-c2ccc(-c3ccccc3)cc2)no[n+]1[O-] [Analogue 26] | n.e. | n.e. |  |  | sluggish | Ex Vivo Parasite Killing 16 hr ([3]; 10 μM compound, cultured worms): sluggish; Ex Vivo Parasite Killing 24 hr [3, 12]: 20%D
Cc1c(-c2ccccc2)no[n+]1[O-] [Analogue 6] |  |  |  |  |  | NO donation on reaction with cysteine (in words) [2]: nor was 6 capable of NO donation; NO release / NO donating ability (in words) [6]: inactive as a NO donor
N#Cc1c(C(=O)c2cccs2)no[n+]1[O-] [Analogue 30] | n.e. | n.e. | n.e. | n.e. | n.e. | NO donation on reaction with cysteine (in words) [2]: capable of releasing NO; Ex Vivo Parasite Killing 16 hr ([3]; 10 μM compound, cultured worms): n.e.; Ex Vivo Parasite Killing 24 hr [3, 12]: n.e.
N#Cc1c(-c2ccc(F)cc2)no[n+]1[O-] [Analogue 20] | n.e. | n.e. | 100%D | 100%D |  | 
N#Cc1c(-c2cccc(Cl)c2)no[n+]1[O-] [Analogue 15] | n.e. | sluggish |  | 100%D |  | 
O=C(c1cccs1)c1no[n+]([O-])c1C(=O)c1cccs1 [Analogue 3, bis(thiophen-2-ylmethanone)-furoxan] | n.e. | n.e. | n.e. | n.e. | n.e. | NO generation in the presence of TGR/NADPH [9]: not in the presence of TGR/NADPH; NO generation in the presence of cysteine [10]: capable of NO generation in the presence of cysteine; Ex Vivo Parasite Killing 16 hr ([3]; 10 μM compound, cultured worms): n.e.; Ex Vivo Parasite Killing 24 hr [3, 12]: n.e.
O=C(O)c1c(-c2ccccc2)no[n+]1[O-] [Analogue 9] |  |  |  |  |  | NO release / NO donating ability (in words) [6]: only modest NO donating abilities
